Test results: paper PMC8638962, “Opposing Effects of PhoPQ and PmrAB on the Properties of Salmonella enterica serovar Typhimurium: Implications on Resistance to Antimicrobial Peptides” (Biochemistry, 2021)
Converted amounts (≈) assume the structure as drawn. Where a SMILES comes first, the peptide text is derived from it. Where no end group is shown, it is not given here. [ ]: non-standard residue; d: D form. The star is where a group is joined. Octanoyl = CCCCCCCC(=O)*

Assays:
[1] = tested on: S. enterica serovar Typhimurium 14 028s wild-type; assay type: cell-based; settings: broth microdilution, serial twofold dilution in modified N-minimal media (MNMM), 18–20 h at 37 °C with agitation, read by visible turbidity; WT ATCC 14028
Procedure: (§1) The antimicrobial activity of the peptides was examined in sterile 96-wells plates (Nunc F96 microtiter plates) in a final volume of 100 μL as follows. Aliquots (50 μL) of an overnight suspension-containing bacteria (late-log phase diluted 1:5000) were added to 50 μL of modified N-minimal media (MNMM) containing the peptides in a serial twofold dilution, and antibiotics, if required, to select for the specific mutant. Inhibition of growth was determined by the visibility of turbidity in comparison to blank with no growth after an incubation of 18–20 h at 37 °C with agitation. Antibacterial activity was expressed as the minimal inhibitory concentration (MIC) in which no growth could be observed.
(§2) We investigated both natural and de novo-designed AMPs (Table 1). The list includes (i) the human cathelicidin LL-37, (ii) a de novo-designed 15-mer AMP designated K6L9 and (iii) its D,L-amino acid-containing analogue, D,L-K6L9, and (iv) D,L amino acid histidine derivative, D,L-H6L9, (v) a 12-mer D,L-K5L7 and (vi) its caprylic-acid-conjugated analogue C8-D,L-K5L7, and (vii) the frog antimicrobial peptide Temporin L.[23] These peptides have different net positive charges under the experimental conditions, as well as hydrophobicity (represented by RP-HPLC retention times), as indicated in Table 1. The peptides were tested for their antibacterial activity against WT S. enterica serovar Typhimurium ATCC 14028 (S. typhimurium) and its mutants (Table 2). The minimal inhibitory concentration (MIC) was defined using a broth microdilution antimicrobial assay. S. typhimurium have been widely used for the exploration of bacterial resistance acquired from these two TCSs.[52],[53]

[2] = tested on: S. enterica serovar Typhimurium 14 028s phoP and PmrAB knockout; assay type: cell-based; settings: broth microdilution, serial twofold dilution in MNMM, 18–20 h at 37 °C with agitation, read by visible turbidity; phoP and PmrAB double knockout
Procedure: as §1, §2

[3] = tested on: S. enterica serovar Typhimurium 14 028s phoP knockout; assay type: cell-based; settings: broth microdilution, serial twofold dilution in MNMM, 18–20 h at 37 °C with agitation, read by visible turbidity
Procedure: as §1, §2

[4] = tested on: S. enterica serovar Typhimurium 14 028s PmrAB knockout; assay type: cell-based; settings: broth microdilution, serial twofold dilution in MNMM, 18–20 h at 37 °C with agitation, read by visible turbidity
Procedure: as §1, §2

[5] = RP-HPLC retention as measure of hydrophobicity; assay type: physicochemical; settings: C18 column, linear gradient 10–90% acetonitrile in water with 0.1% TFA in 40 min, 1.8 mL/min; for retention time: RP-HPLC retention time used as measure of hydrophobicity; for relative hydrophobicity (% ACN): percent of acetonitrile at the retention time, RP-HPLC
Text: The peptides were synthesized by a solid phase method on a rink amide MBHA resin using an ABI 433A automatic peptide synthesizer (Applied Biosystems). The resin-bound peptides (0.1 mequiv each) were cleaved from the resins by trifluoroacetic acid (TFA), washed with dry ether, and extracted with acetonitrile/water (50% v/v). All peptides were amidated at their C terminus. The peptides were further purified by reverse-phase high-pressure liquid chromatography (RP-HPLC) on a C18 reverse-phase Bio-Rad column (250 × 10 mm^2, 300 Å pore size, 5 μm particle size). A linear gradient of 10–90% acetonitrile in water containing 0.1% TFA (v/v) in 40 min was used at a flow rate of 1.8 mL/min. […] Electrospray mass spectroscopy confirmed their identity.[23]
as §2

Compound | MIC, WT [1] [µM] | MIC, DKO [2] [µM] | MIC, phoP-KO [3] [µM] | MIC, pmrAB-KO [4] [µM] | retention time [5] [min] | relative hydrophobicity (% ACN) [5] [% ACN]
CCCCCCCC(=O)N[C@@H](CCCCN)C(=O)N[C@@H](CCCCN)C(=O)N[C@H](CC(C)C)C(=O)N[C@H](CC(C)C)C(=O)N[C@@H](CCCCN)C(=O)N[C@@H](CC(C)C)C(=O)N[C@@H](CC(C)C)C(=O)N[C@H](CC(C)C)C(=O)N[C@@H](CCCCN)C(=O)N[C@H](CC(C)C)C(=O)N[C@@H](CC(C)C)C(=O)N[C@@H](CCCCN)C(N)=O [C8-D,L-K5L7] (Octanoyl-KK[dL][dL]KLL[dL]K[dL]LK-NH2) | 3.125 (≈ 4.93 µg/mL) | 3.125 (≈ 4.93 µg/mL) | 3.125 (≈ 4.93 µg/mL) | 6.25 (≈ 9.85 µg/mL) | 29.1 | 68.2
CC(C)C[C@H](NC(=O)[C@H](CC(C)C)NC(=O)[C@@H](Cc1c[nH]cn1)NC(=O)[C@H](CC(C)C)NC(=O)[C@H](CC(C)C)NC(=O)[C@H](Cc1c[nH]cn1)NC(=O)[C@@H](Cc1c[nH]cn1)NC(=O)[C@@H](CC(C)C)NC(=O)[C@H](CC(C)C)NC(=O)[C@@H](Cc1c[nH]cn1)NC(=O)[C@H](Cc1c[nH]cn1)NC(=O)[C@H](CC(C)C)NC(=O)[C@@H](CC(C)C)NC(=O)[C@H](Cc1c[nH]cn1)NC(=O)[C@@H](N)CC(C)C)C(N)=O [D,L-H6L9] (H-LH[dL]LH[dH]L[dL][dH]HLL[dH]LL-NH2; N-terminus assumed) | 100 (≈ 186 µg/mL) | 50 (≈ 92.9 µg/mL) | 50 (≈ 92.9 µg/mL) | 50 (≈ 92.9 µg/mL) | 29.3 | 68.6
CC(C)C[C@H](NC(=O)[C@H](CCCCN)NC(=O)[C@@H](CC(C)C)NC(=O)[C@@H](CC(C)C)NC(=O)[C@H](CCCCN)NC(=O)[C@@H](N)CCCCN)C(=O)N[C@@H](CC(C)C)C(=O)N[C@H](CC(C)C)C(=O)N[C@@H](CCCCN)C(=O)N[C@H](CC(C)C)C(=O)N[C@@H](CC(C)C)C(=O)N[C@@H](CCCCN)C(N)=O [D,L-K5L7] (H-KK[dL][dL]KLL[dL]K[dL]LK-NH2; N-terminus assumed) | 6.25 (≈ 9.06 µg/mL) | 3.125 (≈ 4.53 µg/mL) | 1.56 (≈ 2.26 µg/mL) | 12.5 (≈ 18.1 µg/mL) | 23.5 | 57
CC(C)C[C@H](NC(=O)[C@H](CC(C)C)NC(=O)[C@@H](CCCCN)NC(=O)[C@H](CC(C)C)NC(=O)[C@H](CC(C)C)NC(=O)[C@H](CCCCN)NC(=O)[C@@H](CCCCN)NC(=O)[C@@H](CC(C)C)NC(=O)[C@H](CC(C)C)NC(=O)[C@@H](CCCCN)NC(=O)[C@H](CCCCN)NC(=O)[C@H](CC(C)C)NC(=O)[C@@H](CC(C)C)NC(=O)[C@H](CCCCN)NC(=O)[C@@H](N)CC(C)C)C(N)=O [D,L-K6L9] (H-LK[dL]LK[dK]L[dL][dK]KLL[dK]LL-NH2; N-terminus assumed) | 1.56 (≈ 2.82 µg/mL) | 0.78 (≈ 1.41 µg/mL) | 0.39 (≈ 0.704 µg/mL) | 1.56 (≈ 2.82 µg/mL) | 27.7 | 65.4
CC[C@H](C)[C@H](NC(=O)[C@H](CCCCN)NC(=O)[C@H](CCC(=O)O)NC(=O)[C@H](CCCCN)NC(=O)[C@H](CO)NC(=O)[C@H](CCCCN)NC(=O)[C@H](CCCNC(=N)N)NC(=O)[C@H](Cc1ccccc1)NC(=O)[C@H](Cc1ccccc1)NC(=O)[C@H](CC(=O)O)NC(=O)CNC(=O)[C@H](CC(C)C)NC(=O)[C@@H](N)CC(C)C)C(=O)NCC(=O)N[C@@H](CCCCN)C(=O)N[C@@H](CCC(=O)O)C(=O)N[C@@H](Cc1ccccc1)C(=O)N[C@@H](CCCCN)C(=O)N[C@@H](CCCNC(=N)N)C(=O)N[C@H](C(=O)N[C@H](C(=O)N[C@@H](CCC(N)=O)C(=O)N[C@@H](CCCNC(=N)N)C(=O)N[C@H](C(=O)N[C@@H](CCCCN)C(=O)N[C@@H](CC(=O)O)C(=O)N[C@@H](Cc1ccccc1)C(=O)N[C@@H](CC(C)C)C(=O)N[C@@H](CCCNC(=N)N)C(=O)N[C@@H](CC(N)=O)C(=O)N[C@@H](CC(C)C)C(=O)N[C@H](C(=O)N1CCC[C@H]1C(=O)N[C@@H](CCCNC(=N)N)C(=O)N[C@H](C(=O)N[C@@H](CCC(=O)O)C(=O)N[C@@H](CO)C(N)=O)[C@@H](C)O)C(C)C)[C@@H](C)CC)C(C)C)[C@@H](C)CC [LL-37, reference compound] | 3.125 (≈ 14 µg/mL) | 3.125 (≈ 14 µg/mL) | 1.56 (≈ 7.01 µg/mL) | 6.25 (≈ 28.1 µg/mL) | – | –
FVQWFSKFLGRIL-NH2 [Temporin L, reference compound] | 25 | 25 | 12.5 | 25 | – | –
LKLLKKLLKKLLKLL-NH2 [L-K6L9] | 1.56 | 3.125 | 0.39 | 3.125 | – | –
